Experimental data from US20190314297A1, “COMBINATION THERAPY OF CBD AND COPAXONE” (TO PHARMACEUTICALS LLC, priority 2016, published 2019).
“Also recorded” adds a separate entry of the source. Read-outs that look alike come from different tables or passages of the source.

Legend:
EAE model in mice = experiment: Suppression of PLP (139-151)-induced relapsing-remitting EAE, daily clinical score; format: in vivo, SJL/J female mice; conditions: monotherapy vs control (vehicle); CBD 5 mg/kg i.p., Copaxone 1 mg/mouse s.c., daily five times a week; FIG. 1-3
Description: SJL/J female mice were purchased from Harlen. Mice at the age of 6-7 weeks old were used to the in the experiments described below. All the experiments were done in accordance with the protocol approved by the Ethics Committee of the Hebrew University of Jerusalem. The mice were housed in cages with free access to food and water. They were maintained in 12 hr. light/dark cycle at room temperature.
Mice were immunized with PLP (139-151) emulsified in CFA together with pertussis vaccine according to the method described in Hooke Laboratories protocols (http://hookelabs.com/protocols/eaeAISJL). PLP is used to induce relapsing-remitting (RR)-EAE model. In the EAE experiments, SJL/J female mice at an age of 6-7 weeks old were used. Mice were observed daily for the appearance of neurological paralytic symptoms (6-7 mice/group), and were scored in scale from 0-5 denoting as follows:
Raw p-value were obtained from exact one-tail Mann Whitney tests and adjusted for multiple comparisons (within each experiment) using Holm modification of the Bonferroni correction
(§1) Histology Following s.c. injection of PLP (139-151) mixed with CFA as well as two pertussis-toxin injections and appearance of paralysis signs in the mice (usually after 9-11 days after initiation of EAE) treatment of mice began.
The treatments were given daily, five times a week and usually continued for about 60 days. […]

[1] = tested on: infiltration of immune cells into the spinal cord; experiment: Histology of immune cell infiltration into the spinal cord in EAE mice (eosin/hematoxylin); format: in vivo, SJL female mice; conditions: sixty days following injection of PLP; vs control non-treated mice
Protocol: as §1
(§2) The treatments were given daily, five times a week and usually continued for about 60 days. GA were given s.c. (at an injection dose of 1 mg/mouse), and CBD at a dose of 5 mg/kg were administrated i.p. (intraperitoneal).
Studies of monotherapies (CBD or Copaxone) and the combination therapy (CBD plus Copaxone) also included histological studies of infiltration of immune cells into the spinal cord in EAE mice (i.e., MS core pathology).

[2] = tested on: skin at the site of subcutaneous Copaxone injection; experiment: Cutaneous wound at the site of repeated s.c. Copaxone injection in EAE mice; format: in vivo, SJL/J female mice
Protocol: as §2
In mice treated with the Copaxone only (2 out of 7 mice), a skin lesion developed on the back at the site of repeated Copaxone injections.

acute EAE [3] = conditions: oral GA, mice; cited from earlier work
acute EAE [4] = conditions: oral GA, rhesus monkeys; cited from earlier work
acute EAE [5] = conditions: oral GA, rats; cited from earlier work

Compound | clinical score (EAE model in mice) | infiltration of immune cells into the white section of the spinal cord [1] | skin lesions (cutaneous wound) at the injection site, in words ([2]; CBD 5 mg/kg i.p. with or without Copaxone 1 mg/mouse s.c.) | effect on acute EAE (acute EAE [3]) | effect on acute EAE (acute EAE [4]) | effect on acute EAE (acute EAE [5]) | skin lesion developed at the site of repeated Copaxone injections (incidence) ([2]; Copaxone only, 1 mg/mouse s.c.)
C=C(C)[C@@H]1CCC(C)=C[C@H]1c1c(O)cc(CCCCC)cc1O [CBD, 2-[(1R,6R)-6-isopropenyl-3-methylcyclohex-2-en-1-yl]-5-pentylbenzene-1,3-diol] | significant decrease in clinical score; also recorded: significantly decreased clinical score | almost total reduction of such infiltration | No suchlesions were observed |  |  |  | 
Glatiramer acetate [Copaxone] | significantly decreased clinical score | almost total reduction of such infiltration |  | suppress acute EAE | suppress acute EAE | suppress acute EAE | 2 out of 7
